Patent publication US10213449B2, “Compositions and methods for treating medulloblastoma” (The Board of Trustees of the Leland Stanford Junior …, priority 2016, dated 2019)
“Also recorded” adds a separate entry of the source.

How the values were obtained:
[1] = tested on: Ptch+/−; Trp53−/−; SmoD477G MB intracranial allografts; assay: Intracranial allograft survival study; type: in vivo, mouse; details: CX-4945 75 mg/kg PO BID vs vehicle control
Description: Ptch+/−; Tpr53−/−; SmoD477G were suspended in sterile PBS to an adjusted final volume of at 80,000 cells/2 uL injection. Mice were anesthetized and fixed to a stereotactic frame and the head was sterilized. A small sagittal incision was made in the mouse's scalp to expose the area surrounding lambda. The skull was sterilized a 0.7 mm drill bit was used to create a midline hole located 2 mm down from lambda. A Hamilton syringe with affixed 26 g needle was lowered to a depth of ˜3 mm then withdraw to 2.75 mm before injecting 2 uL (80,000) cells at 0.5 ul/min. The drill hole was closed with a thin slip of bone wax and the wound was closed. […] Corn oil was used as vehicle for both CX-4945 and DMSO. Weight, morbidity and survival were measured by a blinded collaborator. Kaplan-meyer survival curves were generated using GraphPad Prism and significance was measured by Logrank Mantel-Cox test.

[2] = tested on: Hh signaling in NIH 3T3 cells exposed to Shh; assay: RT-qPCR of Hh target transcripts in Shh-stimulated NIH 3T3 cells; type: cell-based, mouse; details: SHH ligand-induced NIH 3T3 cells; as early as 4 h post exposure
Description: (§1) NIH3T3s or SUFU−/− MEFs were plated in 6 well plates at 400,000 cells/well in 10% FBS media constituted of DMEM (Invitrogen11960-069) supplemented with 10% FBS (Hyclone Labs SH30070.02), pen/strep (Life Technologies 15140-122), sodium pyruvate (Invitrogen 11360-070) and glutamax (Invitrogen 35050-061). Cells were then starved in 0.5% FBS for 24 h prior to treatment with 25% ShhN conditioned media in 0.5% FBS+/− drug treatment. GliΔN were treated 48 h post transfection. Unless otherwise stated, all treatments were performed for 6 h. Cell lysis and RNA extraction was performed using Qiashredder homogenizers (Qiagen 79654) and RNEasy mini kits (qiagen 74104) as per manufacturer's instructions. RNA was quantified on a nanodrop spectrophotometer (nanoddrop technologies ND-2000C). Transcript quantification was performed using a TaqMan RNA-to-Ct 1-Step Kit (Life technologies, 4392656) and the Applied Biosystems 7500 RT-PCR system as per the manufacturer's instructions. All primers were commercially available TaqMan® Gene Expression Assay probes purchased from Life Technologies (csnk2a1: Mm00786779_s1, csnk2a2: Mm01243455_m1, csnk2b: Mm00487216_m1, Gli1: Mm00494654_m1, Gli2: Mm.273292, Ccnd1: Mm.273049, Ptch: Mm00436047_m1).

[3] = tested on: Medulloblastoma cell lines (MB53, MB55 and MB21 cells); assay: Acquired resistance in medulloblastoma cell lines; type: cell-based, mouse; details: CX-4945 10 uM
Description: Medulloblastoma cell lines (MB53, MB55 and MB21 cells) were cultured in Neurobasal (Life Technologies 10888-022)+B27 supplement (Invitrogen 17504044)+DMSO (0.1%), CX-4945 (10 uM) or TBB (50 uM). […] Primer sequences are provided in supplemental table 5.

[4] = tested on: MB cell lines (MB55, MB21, MB53); assay: Cell viability of MB cell lines (CellTiter-Glo); type: cell-based, mouse; details: multiple MB cell lines derived from Ptch1+/− and Ptch1+/−; Trp53−/− mice
Description: Ptch+/−MB cell lines MB55 and MB21 were kindly gifted from Dr. Rosalind Segal (Dana Farber Cancer Institute, Harvard Medical School) and Ptch^+/−; p53^−/− MB53 cells were kindly gifted from Charles Rudin (Memorial Sloan-Kettering Cancer Center). All cell lines were validated for high Gli activity. Cell viability was assessed using CellTiter-Glo (G7573, Promega, WI, USA) according to the manufacturers instructions. Cells were plated at 10000 cells/well in 96-well plates, treated with drugs as indicated and data was collected on a TECAN Infinite 200 plate reader.

[5] = tested on: Hh signaling in NIH 3T3s stimulated with SAG; assay: RT-qPCR of Gli1 in NIH 3T3s stimulated with SAG (epistasis study); type: cell-based, mouse; details: NIH 3T3s, SAG treated groups
Description: (§2) Epistasis studies were next performed to determine where in the hedgehog pathway CK2 acts. The effect of TBB was examined: (i) in NIH 3T3s stimulated with SAG, a SMO agonist, (ii) in Sufu−/− mouse embryonic fibroblasts (MEF), and (iii) in NIH 3T3 cells overexpressing GLI2 (FIG. 3d-3f).
as §1, with “All primers were commercially available TaqMan® Gene Expression Assay probes purchased from Life Technologies (csnk2a1: Mm00786779_s1, csnk2a2: Mm01243455_m1, csnk2b: Mm00487216_m1, Gli1: Mm00494654_m1, Gli2: Mm.273292, Ccnd1: Mm.273049, Ptch: Mm00436047_m1).” left out

[6] = tested on: Ptch+/−; Tpr53−/−; SmoD477G MB flank allografts; assay: Flank allograft study, SMO inhibitor-resistant MB; type: in vivo, mouse; details: TBB 30 mg/kg IP BID or GDC-0449 37.5 mg/kg IP BID vs vehicle control
Description: In vivo efficacy studies were performed in accordance with protocols approved by the Institutional Animal Care and Use Committee at Stanford University. SmoWT-MB and Smo[…]-MB cells isolated from either parental SmoWT or Smo[…] mouse Ptch^+/-; p53^-/- MB hind-flank allografts were kindly provided by Charles Rudin (Memorial Sloan-Kettering Cancer Center). Ptch+/-; Tpr53-/-, or, Ptch+/-; Tpr53-/-; Smo[…] MB cells were mixed 1:1 with matrigel and 10^7 cells were injected into both flanks of a Nu/Nu mouse. Once tumors reached 225-275 mm^3, mice were randomized to treatment vs. control groups. Treatment groups received 30 mg/kg IP BID of TBB (reconstituted in DMSO at 50 ug/uL), or 37.5 mg/kg IP BID of GDC-0449 (reconstituted in DMSO at 62.5 ug/uL). Control mice were treated with an equivalent volume of DMSO. Corn oil was used in all groups to a total volume of 180 uL/injection and all doses were given with a 28 g insulin syringe. Tumors were measured and mice were weighed daily. Once tumors reached 1.5 cm^2 or met institutional euthanasia criteria, mice were sacrificed and tumors were harvested. Growth curves were generated using GraphPad Prism and significance was measured by two-way ANOVA.

[7] = tested on: Hh signaling in Sufu−/− mouse embryonic fibroblasts; assay: RT-qPCR of Gli1 in Sufu−/− MEFs (epistasis study); type: cell-based
Text: as §2
Sufu^−/− MEFs (conditional deletion of exons 4-8) were kindly provided by Pao-Tien Chang (UCSF). SAG (S7779), GDC-0449 (Vismodegib, S1082) and CX-4945 (Silmitasertib, S2248) was purchased from SelleckChem.com. TBB was purchased from EMD (218697). Shh-N conditional medium was made using a HEK 293 cell line that stably secretes ShhN as previously described. Myc-GL12-DN (17649, pCS2-MT-GLI2-deltaN) plasmid was purchased from Addgene (Cambridge, Mass., USA). […]
NIH3T3s or SUFU−/− MEFs were plated in 6 well plates at 400,000 cells/well in 10% FBS media constituted of DMEM (Invitrogen11960-069) supplemented with 10% FBS (Hyclone Labs SH30070.02), pen/strep (Life Technologies 15140-122), sodium pyruvate (Invitrogen 11360-070) and glutamax (Invitrogen 35050-061). […] RNA was quantified on a nanodrop spectrophotometer (nanoddrop technologies ND-2000C). Transcript quantification was performed using a TaqMan RNA-to-Ct 1-Step Kit (Life technologies, 4392656) and the Applied Biosystems 7500 RT-PCR system as per the manufacturer's instructions. […]

Row | Compound | survival (Kaplan-Meier) of mice harboring intracranial allografts [1] | Gli1 mRNA levels [2] | surviving cells after 2 weeks of culture with drug [3] | cell viability [4] | Gli1 mRNA levels (effect of SMO agonist) [5] | tumor growth of SmoD477G MB flank allografts [6] | Gli1 mRNA / Gli transcript levels [7]
1 | O=C(O)c1ccc2c(c1)nc(Nc1cccc(Cl)c1)c1ccncc12 [CX-4945, 5-(3-Chloroanilino)benzo[c][2,6]naphthyridine-8-carboxylic acid] | significant increase in survival | inhibited; also recorded: loss of Gli1 induction | only control treated (DMSO) and MB55 TBB treated (50 uM) cells remained | decreased; also recorded: dose dependent tumoricidal effects |  |  | 
2 | CNC1CCC(N(Cc2cccc(-c3ccncc3)c2)C(=O)c2sc3ccccc3c2Cl)CC1 (centres unmarked) [SAG] |  |  |  |  | Increased |  | 
3 | CS(=O)(=O)c1ccc(C(=O)Nc2ccc(Cl)c(-c3ccccn3)c2)c(Cl)c1 [GDC-0449, 2-chloro-N-(4-chloro-3-pyridin-2-ylphenyl)-4-methylsulfonylbenzamide] |  | loss of Gli1 induction |  |  |  | resistant | no significant change
